Data on three molecules can be found in article PMC4267740, “Unprecedented Therapeutic Potential with a Combination of A2A/NR2B Receptor Antagonists as Observed in the 6-OHDA Lesioned Rat Model of Parkinson's Disease” (PLoS ONE, 2014).

Broadly, the IC50 is the concentration needed to halve the response being measured. In general, Ki refers to a dissociation constant, usually derived from enzyme kinetics or from competition with a known ligand.

The subject of one series is NR2A. Also noted: method as in PMID 19594762. The settings on record: In vitro Binding; cited from earlier work.
Another series relates to NR2B. The settings on record: In vitro Binding; cited from earlier work.
Series [1] can be described thus: Plasma and brain exposure in satellite lesioned rats. The series is classed as in vivo, rat. The settings on record: rat, mean ± SD; for concentration at 60 min: po, 30 mg/kg, 60 min after dosing; for concentration at 90 min: ip, 3 mg/kg, 90 min after dosing. How it is done: Satellite lesioned rats (400–450 g) were anesthetized with isoflurane and sacrificed by exsanguination. Blood samples were collected in EDTA centrifuged 10 min at 3000 rpm at 4°C to obtain plasma and stored at −20°C prior the analysis. Brains were perfused by saline collected and immediately stored at −20°C prior the analysis. Brain samples were added to 4 volumes of water before being homogenized. A structural analog compound was added as internal standard to the samples and proteins were crashed using 8 volumes of acetonitrile. Compounds were analyzed on an API5000 mass spectrometer (ABSciex, Framingham, MA, USA.) equipped with a turbo ion spray source and interfaced with an Agilent 1290 Infinity LC system (Agilent Technologies, Waldbroon, Germany). The mass spectrometer was operated in the positive ionization mode with Multiple Reactions Monitoring used to quantify the various analytes (407 to 292 for Tozadenant; 398 to 109 for Radiprodil, 346 to 105 for Sch-58261 and 342 to 100 for Co-101244). A Waters HSS T3 column (2.1×30 mm, 1.8 µm) was used. The mobile phase consisted of 100% water with 0.1% formic acid (phase A) and 100% acetonitrile with 0.1% formic acid (phase B). The flow rate was 1 mL/min. A linear gradient was performed from 0 to 1 min (95 to 30% phase A), a jump to 90% B in 0.01 min, a hold period of 1.29 min at 90% phase B followed by equilibration at the initial condition was applied before the following injection.
(§1) Before undertaking the study, each A2A and NR2B antagonist was tested individually. The doses were selected on the basis of preliminary dose-response curves performed separately for each drug and submaximal dose (i.e. response observed is not at its maximal level) of each drug was selected for the combination studies. The two drugs were administered separately via an intraperitoneal (ip) injection with a 2-minute interval between the two drugs. Five minutes after the second injection, animals were placed in the testing cage for behavioural recording. Due to formulation and exposure issues, Tozadenant and Radiprodil had to be administered orally and therefore recording was started 60 minutes post dosing at this corresponds to maximum plasma concentrations. Eight drug-naïve animals were used for each of the four procedures; 32 in total for each combination. All behavioral experiments were conducted between 8.00 AM and 2.00 PM at the latest. Preliminary pharmacokinetic assays investigated the plasma and brain disposition of selected drugs administered alone or in combination (ie. Tozadenant/Radiprodil, and Sch-58261/Co-101244; 3 animals per group). Tozadenant and Radiprodil were measured in samples obtained 60 minutes after single oral administration at 30 mg/kg. Sch-58261 and Co-101244 were measured in samples collected 90 min after single intraperitoneal administration at 3 mg/kg.

For series [2], the system named is unilateral 6-OHDA-lesioned rats. The series is described as follows: Rearing counts in actometers, monotherapy (without L-Dopa). The series is classed as in vivo, rat. As for the experimental part:
To protect norepinephrinergic neurons, animals were administered imipramine HCl (Sigma) 15 minutes before surgery. They were subsequently anesthetized with ketamine (Ceva, 75 mg/kg) and xylazine (Bayer, 10 mg/kg) and placed in stereotaxic frame (David Kopf Instrument). 6-OHDA was injected into the right ascending medial forebrain bundle at the following coordinates (in mm) relative to bregma and surface of the dura, AP = −3.5, ML = −1.5, DV = −8.7. Each rat received one injection of 6-OHDA (4 µg/µl) over a period of 5 minutes (0.5 µl/min) for a total of 10 µg per rat. Animals were monitored for 3 weeks to ensure full recovery and habituation to the environment and experimenters.
On day 21 post surgery, all rats were challenged with a small dose of subcutaneously administered apomorphine (Sigma, 0.05 mg/kg). Rats showing more than 90 contralateral rotations (360°) over a 45-minute recording period were included in the study. […] For each experiment, rats were allocated to the different experimental groups in order to get the same mean level of basal activity measured at the apomorphine challenge amongst the different experimental groups.
Drug-naïve separate rats were tested individually in clear acrylic chambers (LE8811 IR, Panlab). Locomotion was detected and measured by 16 infrared light-beam sensors located on each side of the enclosure at a height of 3 cm. Sensors were spaced such that the light beams formed a matrix of 15×15 squares over the surface. Activity counts were recorded on a computer and Acti-Track software (Actitrack, Panlab) was used to convert raw data into “distance traveled” and “rearing counts” for analysis as relevant dependent variables.
Six different combinations of A2A/NR2B antagonists were tested without L-Dopa. For each combination, there were four different procedures: vehicle only; A2A antagonist followed by vehicle; vehicle followed by the NR2B antagonist and A2A antagonist followed by the NR2B antagonist. The drugs, doses and combinations are described in Table 3. After drug administration, rats were placed in actometers (open-field) for monitoring the general level of motor activity (distance traveled and rearing counts).
as §1
The effects of A2A and NR2B antagonists on the level of motor activity (i.e. distance traveled and rearing counts) were assessed with three-way mixed ANOVA, combining the A2A receptor antagonist (2 levels, vehicle and the A2A drug) and the NR2B antagonist (2 levels, vehicle and the NR2B drug) as between-group factors with the time as within-subjects factor (6 or 9 levels). […]

The next series deals with A2A. Also on record: method as in PMID 21810444, PMID 9933143, PMID 17236762. The settings on record: in vitro binding; rat or human; cited from earlier work.
Another series addresses A1. Also noted: method as in PMID 21810444, PMID 9933143, PMID 17236762. As to conditions: in vitro binding; rat or human; cited from earlier work.
Setting [3] is: brain, administered alone, oral 30 mg/kg, expressed per g tissue, 3 animals, read-out: Brain concentration.
Where [4] appears, read: brain, administered in combination Tozadenant + Radiprodil, both oral 30 mg/kg, expressed per g tissue, 3 animals, read-out: Brain concentration.
Where [5] appears, read: plasma, administered alone, oral 30 mg/kg, 3 animals, read-out: Plasma concentration.
Where [6] appears, read: plasma, administered in combination Tozadenant + Radiprodil, both oral 30 mg/kg, 3 animals, read-out: Plasma concentration.
The mark [7] stands for this setting: Preladenant 0.1 mg/kg ip, Radiprodil 1 mg/kg ip.
The mark [8] stands for this setting: Tozadenant 30 mg/kg po, Radiprodil 3 mg/kg po.
[9] abbreviates: Sch-58261 1 mg/kg ip, Co-101244 1 mg/kg ip.
[10] abbreviates: Sch-58261 1 mg/kg ip, Merck 22 1 mg/kg ip.

SMILES strings stand for the structures. “Also recorded” adds a separate entry of the source. Like-named read-outs stand apart in the source and are kept apart here.

`O=C(Nc1ccc2[nH]c(=O)oc2c1)C(=O)N1CCC(Cc2ccc(F)cc2)CC1` [Radiprodil]: the IC50 in the series on NR2A is greater than 10000 nM; in the series on NR2B, 3 to 10 nM. Also, the concentration at 60 min in series [1] (setting [3]) was determined as 2630 ± 560 ng/mL; in series [1] (setting [4]), 2590 ± 2480 ng/mL; in series [1] (setting [5]), 4960 ± 850 ng/mL; in series [1] (setting [6]), 5590 ± 2930 ng/mL. Further, the “Rearing counts, drugs alone vs vehicle, p (Newman-Keuls)” value in series [2] (setting [7]) is given as “Radiprodil, not significant”; in series [2] (setting [8]) it was “Not significant”. In addition, the “Rearing counts, drugs main effect, p (three-way mixed ANOVA)” value (shortened to “Rearing counts, drugs main effect, p”) in series [2] (setting [7]) is given as “p<0.001”; in series [2] (setting [8]), “p<0.01”. The figures for the “Rearing counts, drugs × time effect, p (three-way mixed ANOVA)” value (from here on “Rearing counts, drugs × time effect, p”) in series [2] (setting [7]) and in series [2] (setting [8]) were “p<0.01” and “p<0.001”, respectively. Moreover, in series [2] (drug administered alone), the “Rearing counts, drug alone in comparison to vehicle rats” value is “not”.

For the molecule `Nc1nc2c(cnn2CCc2ccccc2)c2nc(-c3ccco3)nn12` [Sch-58261], the concentration at 90 min in series [1] (brain, administered alone, ip 3 mg/kg, expressed per g tissue, 3 animals (Co-101244 n = 2), read-out: Brain concentration) was found to be 246 ± 34.7 ng/mL; in series [1] (brain, administered in combination Sch-58261+Co-101244, both ip 3 mg/kg, expressed per g tissue, 3 animals, read-out: Brain concentration), 264 ± 38.3 ng/mL; in series [1] (plasma, administered alone, ip 3 mg/kg, 3 animals (Co-101244 n = 2), read-out: Plasma concentration) it was 97.2 ± 10.1 ng/mL; in series [1] (plasma, administered in combination Sch-58261+Co-101244, both ip 3 mg/kg, 3 animals, read-out: Plasma concentration), 112 ± 4.16 ng/mL. For the same molecule, the “Rearing counts, drugs alone vs vehicle, p (Newman-Keuls)” value is given as “Both p<0.05” in series [2] (setting [9]) and “Sch-58261 p<0.05” in series [2] (setting [10]). Besides, the “Rearing counts, drugs main effect, p” value in series [2] (setting [9]) and in series [2] (setting [10]) was “p<0.001” in each case. The “Rearing counts, drugs × time effect, p” value in series [2] (setting [9]) and in series [2] (setting [10]) was “p<0.001” throughout.

For `COc1ccc(N2CCOCC2)c2sc(NC(=O)N3CCC(C)(O)CC3)nc12` [Tozadenant], the Ki on A2A is 4.9 nM; on A1 it was 1320 nM. Moreover, the concentration at 60 min in series [1] (setting [3]) was determined as 180 ± 40 ng/mL; in series [1] (setting [4]) it was 110 ± 40 ng/mL; in series [1] (setting [5]), 6050 ± 950 ng/mL; in series [1] (setting [6]) it was 5040 ± 140 ng/mL. Besides, in series [2] (setting [8]), the “Rearing counts, drugs alone vs vehicle, p (Newman-Keuls)” value was “exception; also recorded: Not significant”. The “Rearing counts, drugs main effect, p” value in series [2] (setting [8]) is “p<0.01”. Further, the “Rearing counts, drugs × time effect, p” value in series [2] (setting [8]) is “p<0.001”.
